# In PubChem BioAssay (NCI):
#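 Protocol summary: plate cells (96-well), add compound at 5 concentrations, incubate 48 h, interpolate endpoints linearly. At the GI50, growth is halved. At the TGI there is no net growth.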
# Tests used:
# Test in all cases: DTP human tumour cell line panel, 48 h
# A498 renal = system: A498 renal
# MALME-3M melanoma = system: MALME-3M melanoma
# SK-MEL-2 melanoma = system: SK-MEL-2 melanoma
# HCC-2998 colon = system: HCC-2998 colon
# OVCAR-3 ovarian = system: OVCAR-3 ovarian
# MDA-MB-435 = system: MDA-MB-435
# OVCAR-5 ovarian = system: OVCAR-5 ovarian
# KM12 colon = system: KM12 colon
# NCI-H522 lung = system: NCI-H522 lung
# HCT-15 colon = system: HCT-15 colon
# RXF 393 renal = system: RXF 393 renal
# SW-620 colon = system: SW-620 colon
# MCF7 breast = system: MCF7 breast
# SNB-75 CNS = system: SNB-75 CNS
# U251 CNS = system: U251 CNS
# M14 melanoma = system: M14 melanoma
# EKVX NSCLC = system: EKVX NSCLC
# DU-145 prostate = system: DU-145 prostate
# HOP-92 NSCLC = system: HOP-92 NSCLC
# A549 NSCLC = system: A549 NSCLC
# IGROV1 ovarian = system: IGROV1 ovarian
# MDA-MB-231 breast = system: MDA-MB-231 breast
# MOLT-4 leukemia = system: MOLT-4 leukemia
# SNB-19 CNS = system: SNB-19 CNS
# OVCAR-8 ovarian = system: OVCAR-8 ovarian
# HOP-62 NSCLC = system: HOP-62 NSCLC
# TK-10 renal = system: TK-10 renal
# SN12C renal = system: SN12C renal
# BT-549 breast = system: BT-549 breast
# HL-60(TB) leukemia = system: HL-60(TB) leukemia
# T-47D breast = system: T-47D breast
# LOX IMVI melanoma = system: LOX IMVI melanoma
# 786-0 renal = system: 786-0 renal
# SK-MEL-5 melanoma = system: SK-MEL-5 melanoma
# PC-3 prostate = system: PC-3 prostate
# COLO 205 colon = system: COLO 205 colon
# NCI-H23 lung = system: NCI-H23 lung
# HS 578T breast = system: HS 578T breast
# RPMI-8226 leukemia = system: RPMI-8226 leukemia
# SF-539 CNS = system: SF-539 CNS
# ACHN renal = system: ACHN renal
# UACC-62 melanoma = system: UACC-62 melanoma
# NCI-H226 lung = system: NCI-H226 lung
# K-562 leukemia = system: K-562 leukemia
# CAKI-1 renal = system: CAKI-1 renal
# UO-31 renal = system: UO-31 renal
# SF-295 CNS = system: SF-295 CNS
# HT29 colon = system: HT29 colon
# CCRF-CEM leukemia = system: CCRF-CEM leukemia
# SF-268 CNS = system: SF-268 CNS
# SR leukemia = system: SR leukemia
# SK-OV-3 ovarian = system: SK-OV-3 ovarian
# UACC-257 melanoma = system: UACC-257 melanoma
# SK-MEL-28 melanoma = system: SK-MEL-28 melanoma
# NCI/ADR-RES ovarian = system: NCI/ADR-RES ovarian
# HCT-116 colon = system: HCT-116 colon
# NCI-H460 lung = system: NCI-H460 lung
# OVCAR-4 ovarian = system: OVCAR-4 ovarian
structure (smiles),measurement,setting,value
Nc1nn2cc(F)cnc2c1C(=O)Nc1cncc(F)c1N1CCC(C(=O)N2CCN(C3COC3)CC2)CC1,GI50,A498 renal,181 nM
same,TGI,A498 renal,857 nM
same,GI50,MALME-3M melanoma,608 nM
same,TGI,MALME-3M melanoma,12000 nM
same,GI50,SK-MEL-2 melanoma,194 nM
same,TGI,SK-MEL-2 melanoma,821 nM
same,GI50,HCC-2998 colon,46.4 nM
same,TGI,HCC-2998 colon,> 100000 nM
same,GI50,OVCAR-3 ovarian,854 nM
same,TGI,OVCAR-3 ovarian,26000 nM
same,GI50,MDA-MB-435,266 nM
same,TGI,MDA-MB-435,2540 nM
same,GI50,OVCAR-5 ovarian,616 nM
same,TGI,OVCAR-5 ovarian,> 100000 nM
same,GI50,KM12 colon,369 nM
same,TGI,KM12 colon,> 100000 nM
same,GI50,NCI-H522 lung,427 nM
same,TGI,NCI-H522 lung,3050 nM
same,GI50,HCT-15 colon,165 nM
same,TGI,HCT-15 colon,4130 nM
same,GI50,RXF 393 renal,110 nM
same,TGI,RXF 393 renal,778 nM
same,GI50,SW-620 colon,1510 nM
same,TGI,SW-620 colon,> 100000 nM
same,GI50,MCF7 breast,60.8 nM
same,TGI,MCF7 breast,> 100000 nM
same,GI50,SNB-75 CNS,168 nM
same,TGI,SNB-75 CNS,1500 nM
same,GI50,U251 CNS,656 nM
same,TGI,U251 CNS,> 100000 nM
same,GI50,M14 melanoma,154 nM
same,TGI,M14 melanoma,5400 nM
same,GI50,EKVX NSCLC,512 nM
same,TGI,EKVX NSCLC,> 100000 nM
same,GI50,DU-145 prostate,469 nM
same,TGI,DU-145 prostate,> 100000 nM
same,GI50,HOP-92 NSCLC,653 nM
same,TGI,HOP-92 NSCLC,13000 nM
same,GI50,A549 NSCLC,266 nM
same,TGI,A549 NSCLC,> 100000 nM
same,GI50,IGROV1 ovarian,464 nM
same,TGI,IGROV1 ovarian,3040 nM
same,GI50,MDA-MB-231 breast,1930 nM
same,TGI,MDA-MB-231 breast,6370 nM
same,GI50,MOLT-4 leukemia,71.2 nM
same,TGI,MOLT-4 leukemia,762 nM
same,GI50,SNB-19 CNS,910 nM
same,TGI,SNB-19 CNS,7680 nM
same,GI50,OVCAR-8 ovarian,548 nM
same,TGI,OVCAR-8 ovarian,6130 nM
same,GI50,HOP-62 NSCLC,676 nM
same,TGI,HOP-62 NSCLC,3980 nM
same,GI50,TK-10 renal,888 nM
same,TGI,TK-10 renal,> 69900 nM
same,GI50,SN12C renal,987 nM
same,TGI,SN12C renal,6170 nM
same,GI50,BT-549 breast,246 nM
same,TGI,BT-549 breast,1550 nM
same,GI50,HL-60(TB) leukemia,129 nM
same,TGI,HL-60(TB) leukemia,465 nM
same,GI50,T-47D breast,2040 nM
same,TGI,T-47D breast,> 100000 nM
same,GI50,LOX IMVI melanoma,285 nM
same,TGI,LOX IMVI melanoma,1550 nM
same,GI50,786-0 renal,277 nM
same,TGI,786-0 renal,> 100000 nM
same,GI50,SK-MEL-5 melanoma,428 nM
same,TGI,SK-MEL-5 melanoma,1770 nM
same,GI50,PC-3 prostate,2060 nM
same,TGI,PC-3 prostate,> 100000 nM
same,GI50,COLO 205 colon,575 nM
same,TGI,COLO 205 colon,> 100000 nM
same,GI50,NCI-H23 lung,60.6 nM
same,TGI,NCI-H23 lung,498 nM
same,GI50,HS 578T breast,191 nM
same,TGI,HS 578T breast,1480 nM
same,GI50,RPMI-8226 leukemia,1200 nM
same,GI50,SF-539 CNS,164 nM
same,TGI,SF-539 CNS,571 nM
same,GI50,ACHN renal,250 nM
same,GI50,UACC-62 melanoma,522 nM
same,TGI,UACC-62 melanoma,2560 nM
same,GI50,NCI-H226 lung,1170 nM
same,TGI,NCI-H226 lung,4450 nM
same,GI50,K-562 leukemia,281 nM
same,TGI,K-562 leukemia,2740 nM
same,GI50,CAKI-1 renal,235 nM
same,TGI,CAKI-1 renal,3160 nM
same,GI50,UO-31 renal,284 nM
same,TGI,UO-31 renal,2620 nM
same,GI50,SF-295 CNS,238 nM
same,TGI,SF-295 CNS,1860 nM
same,GI50,HT29 colon,452 nM
same,TGI,HT29 colon,> 100000 nM
same,GI50,CCRF-CEM leukemia,33.2 nM
same,GI50,SF-268 CNS,1330 nM
same,TGI,SF-268 CNS,> 100000 nM
same,GI50,SR leukemia,61.9 nM
same,TGI,SR leukemia,894 nM
same,GI50,SK-OV-3 ovarian,243 nM
same,TGI,SK-OV-3 ovarian,6020 nM
same,GI50,UACC-257 melanoma,1320 nM
same,TGI,UACC-257 melanoma,> 76400 nM
same,GI50,SK-MEL-28 melanoma,2950 nM
same,TGI,SK-MEL-28 melanoma,> 100000 nM
same,GI50,NCI/ADR-RES ovarian,749 nM
same,TGI,NCI/ADR-RES ovarian,> 48500 nM
same,GI50,HCT-116 colon,942 nM
same,TGI,HCT-116 colon,> 29600 nM
same,GI50,NCI-H460 lung,254 nM
same,TGI,NCI-H460 lung,7200 nM
same,GI50,OVCAR-4 ovarian,326 nM
same,TGI,OVCAR-4 ovarian,7860 nM
